Measurements published in patent US9657305B2, “Synthesis of sialic acid in plants” (Medicago, Inc., priority 2006, dated 2017).

Key:
tobacco BY2 cells [1] = assay: Toxicity of Neu5Ac on tobacco BY2 cells (cell viability, propidium iodide and fluorescein diacetate); type: cell-based, Nicotiana tabacum; settings: 10 mM Neu5Ac, 48 h period
[2] = Synthase activity of recombinant Neu5Ac lyase (formation of Neu5Ac from D-ManNAc and pyruvate, GC-EI MS); type: biochemical; settings: pH 7, […]° C.
Experimental: Soluble enzyme activities were assayed by incubating cell extracts with PEP 4 mM, NADH 4 mM, NaHCO3 20 mM and DTE 10 mM. Oxydation of NADH was measured by a diminution of absorbance at 340 nm after 10 min. […] Cells extracts were incubated 2 h at 37° C. in Solution B (100 mM Tris-HCl buffer, pH=7.4 and 10 mM MgCl2) containing proteinase inhibitors (pepstatine 1 μg·mL^−1, E64 1 μg·mL^1 and PMSF 1 mM) and Neu5Ac 40 mM. […] Cells extracts were incubated 2 h at 37° C. in Solution B (100 mM […], pH=7.4 and 10 mM MgCl2) containing proteinase inhibitors (pepstatine 1 μg·mL^−1, E64 1 μg·mL^1 and PMSF 1 mM) and ManNAc 20 mM and pyruvate 40 mM. Synthase activity of NeuB2 was assayed by measuring the formation of Neu5Ac after incubating transformants cells extracts with ManNAc and PEP. Cells extracts were incubated 2 h at 37° C. in Solution B (100 mM Tris-HCl buffer, pH=7.4 and 10 mM MgCl2) containing proteinase inhibitors (pepstatine 1 μg·mL^−1, E64 1 μg·mL^−1 and PMSF 1 mM) and ManNAc 10 mM and PEP 10 mM. […]
For the enzymatic assays, the reaction mixtures were first submitted to a purification step on C18 Seppack cartridges. […] The quantification of sugar was done by integration of peaks and determination of the corresponding molar values using response factors established with standard monosaccharides. […]

tobacco BY2 cells [3] = assay: In planta activity of Neu5Ac lyase: feeding transformed tobacco BY2 cells with Neu5Ac, GC of cytosolic monosaccharides; type: cell-based, Nicotiana tabacum; settings: BY2 cells fed 10 mM Neu5Ac, 48 h
Experimental: After 2 d, BY2 cells were washed with BY2 medium without Neu5Ac or ManNAc and harvested. The cells were heated at 70° C. for 15 min in 70% ethanol to inactivate enzymes and then ground in a potter homogenizer. The homogenate was washed two times with 70% ethanol at 70° C. The remaining pellet and the supernatant were considered as representatives of the cell walls and the cytosolic free monosaccharides respectively. Monosaccharides of the supernatant fraction were then analysed by gas chromatography
The formation of D-ManNAc was determined by analysing cytosolic monosaccharides by GC after a 48 h period at temperature ranging from 23° C. to 37° C.

[4] = Stability of the recombinant enzymes expressed in the plant cytosol; settings: tobacco BY2 cells, alfalfa plants or transient expression
Source text: The synthesis of Neu5Ac in presence of pyruvate and ManNAc was also observed.

| Compound | toxicity of Neu5Ac on tobacco BY2 cells (cell viability) (tobacco BY2 cells [1]) | ability to synthesise Neu5Ac [2] | increase in D-ManNAc content at 37° C. compared to 23° C. (tobacco BY2 cells [3]) | degradation of recombinant protein in the cytosol [4] |
| --- | --- | --- | --- | --- |
| CC(=O)N[C@H]1[C@H]([C@H](O)[C@H](O)CO)OC(O)(C(=O)O)C[C@@H]1O (stereo partly shown) [Neu5Ac, N-acetyl neuraminic acid] | no toxic effects were observed | – | – | – |
| Neu5Ac lyase: Neu5Ac lyase from Escherichia coli K1 (accession number D00067) expressed in tobacco BY2 cells | – | able to synthesise Neu5Ac | 25 fold | No degradation |
